Assay results reported in PubChem BioAssay (NCI).
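At the GI50, growth is halved. TGI: total growth inhibition.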

What was measured:
Experiment in all cases: growth of human tumour cells (NCI), 384-well format
HOP-62 NSCLC = tested on: HOP-62 NSCLC
SK-MEL-28 melanoma = tested on: SK-MEL-28 melanoma
SN12C renal = tested on: SN12C renal
IGROV1 ovarian = tested on: IGROV1 ovarian
HL-60(TB) leukemia = tested on: HL-60(TB) leukemia
T-47D breast = tested on: T-47D breast
LOX IMVI melanoma = tested on: LOX IMVI melanoma
MDA-MB-468 breast = tested on: MDA-MB-468 breast
OVCAR-8 ovarian = tested on: OVCAR-8 ovarian
OVCAR-3 ovarian = tested on: OVCAR-3 ovarian
UO-31 renal = tested on: UO-31 renal
HCC-2998 colon = tested on: HCC-2998 colon
EKVX NSCLC = tested on: EKVX NSCLC
SK-OV-3 ovarian = tested on: SK-OV-3 ovarian
A498 renal = tested on: A498 renal
MCF7 breast = tested on: MCF7 breast
UACC-62 melanoma = tested on: UACC-62 melanoma
SNB-19 CNS = tested on: SNB-19 CNS
ACHN renal = tested on: ACHN renal
SK-MEL-5 melanoma = tested on: SK-MEL-5 melanoma
BT-549 breast = tested on: BT-549 breast
COLO 205 colon = tested on: COLO 205 colon
RPMI-8226 leukemia = tested on: RPMI-8226 leukemia
MALME-3M melanoma = tested on: MALME-3M melanoma
HCT-116 colon = tested on: HCT-116 colon
TK-10 renal = tested on: TK-10 renal
DU-145 prostate = tested on: DU-145 prostate
HT29 colon = tested on: HT29 colon
SNB-75 CNS = tested on: SNB-75 CNS
CAKI-1 renal = tested on: CAKI-1 renal
U251 glioblastoma = tested on: U251 glioblastoma
KM12 colon = tested on: KM12 colon
NCI-H23 lung = tested on: NCI-H23 lung
SF-539 CNS = tested on: SF-539 CNS
CCRF-CEM leukemia = tested on: CCRF-CEM leukemia
SW-620 colon = tested on: SW-620 colon
HS 578T breast = tested on: HS 578T breast
M14 melanoma = tested on: M14 melanoma
786-0 renal = tested on: 786-0 renal
NCI-H226 lung = tested on: NCI-H226 lung
OVCAR-5 ovarian = tested on: OVCAR-5 ovarian
MDA-MB-231 breast = tested on: MDA-MB-231 breast
SF-295 CNS = tested on: SF-295 CNS
HCT-15 colon = tested on: HCT-15 colon
K-562 leukemia = tested on: K-562 leukemia
SK-MEL-2 melanoma = tested on: SK-MEL-2 melanoma
MDA-MB-435 melanoma = tested on: MDA-MB-435 melanoma
A549 NSCLC = tested on: A549 NSCLC
SF-268 CNS = tested on: SF-268 CNS
HOP-92 NSCLC = tested on: HOP-92 NSCLC
NCI-H522 lung = tested on: NCI-H522 lung
PC-3 prostate = tested on: PC-3 prostate
NCI-H460 NSCLC = tested on: NCI-H460 NSCLC
OVCAR-4 ovarian = tested on: OVCAR-4 ovarian
RXF 393 renal = tested on: RXF 393 renal
MOLT-4 leukemia = tested on: MOLT-4 leukemia
NCI-H322M lung = tested on: NCI-H322M lung
NCI/ADR-RES ovarian = tested on: NCI/ADR-RES ovarian
UACC-257 melanoma = tested on: UACC-257 melanoma

`NC(=O)c1cccc2c(N[C@H](CN3CCC3)c3ccc(Cl)c(C(F)(F)F)c3)ncnc12` gave a GI50 (HOP-62 NSCLC) of 3.32 µM, a TGI (HOP-62 NSCLC) of 12 µM and a GI50 (SK-MEL-28 melanoma) of 1.26 µM. It also gave a TGI (SK-MEL-28 melanoma) of 2.69 µM, a GI50 (SN12C renal) of 2.1 µM and a TGI (SN12C renal) of 12.6 µM. The GI50 (IGROV1 ovarian) was 0.247 µM, the TGI (IGROV1 ovarian) was 1.88 µM and the GI50 (HL-60(TB) leukemia) was 1.56 µM. The TGI (HL-60(TB) leukemia) was 2.91 µM, the GI50 (T-47D breast) was 0.199 µM and the TGI (T-47D breast) was 1.39 µM. It also gave a GI50 (LOX IMVI melanoma) of 2.18 µM, a TGI (LOX IMVI melanoma) of 7 µM and a GI50 (MDA-MB-468 breast) of 0.256 µM. For the same molecule, the TGI (MDA-MB-468 breast) was 1.25 µM, the GI50 (OVCAR-8 ovarian) was 2.56 µM and the TGI (OVCAR-8 ovarian) was 11.2 µM. It also gave a GI50 (OVCAR-3 ovarian) of 2.72 µM, a TGI (OVCAR-3 ovarian) of 11.2 µM and a GI50 (UO-31 renal) of 1.58 µM. For the same molecule, the TGI (UO-31 renal) was 9.03 µM, the GI50 (HCC-2998 colon) was 1.04 µM and the TGI (HCC-2998 colon) was 2.23 µM. The GI50 (EKVX NSCLC) was 1.15 µM, the TGI (EKVX NSCLC) was 5.01 µM and the GI50 (SK-OV-3 ovarian) was 0.43 µM. The TGI (SK-OV-3 ovarian) was 2.91 µM, the GI50 (A498 renal) was 0.138 µM and the TGI (A498 renal) was 1.52 µM. For the same molecule, the GI50 (MCF7 breast) was 0.362 µM, the TGI (MCF7 breast) was 1.86 µM and the GI50 (UACC-62 melanoma) was 0.98 µM. It also gave a TGI (UACC-62 melanoma) of 2.21 µM, a GI50 (SNB-19 CNS) of 1.73 µM and a TGI (SNB-19 CNS) of 5.2 µM. The GI50 (ACHN renal) was 1.95 µM, the TGI (ACHN renal) was 12.2 µM and the GI50 (SK-MEL-5 melanoma) was 1.38 µM. It also gave a TGI (SK-MEL-5 melanoma) of 2.69 µM, a GI50 (BT-549 breast) of 0.316 µM and a TGI (BT-549 breast) of 1.52 µM. For the same molecule, the GI50 (COLO 205 colon) was 0.951 µM, the TGI (COLO 205 colon) was 2.16 µM and the GI50 (RPMI-8226 leukemia) was 1.2 µM. It also gave a TGI (RPMI-8226 leukemia) of 2.45 µM, a GI50 (MALME-3M melanoma) of 0.457 µM and a TGI (MALME-3M melanoma) of 1.71 µM. It also gave a GI50 (HCT-116 colon) of 1.8 µM, a TGI (HCT-116 colon) of 5.39 µM and a GI50 (TK-10 renal) of 1.25 µM. For the same molecule, the TGI (TK-10 renal) was 3.18 µM, the GI50 (DU-145 prostate) was 2.63 µM and the TGI (DU-145 prostate) was 13.8 µM. It also gave a GI50 (HT29 colon) of 1.4 µM, a TGI (HT29 colon) of 2.98 µM and a GI50 (SNB-75 CNS) of 0.258 µM. It also gave a TGI (SNB-75 CNS) of 1.57 µM, a GI50 (CAKI-1 renal) of 1.29 µM and a TGI (CAKI-1 renal) of 3.65 µM. For the same molecule, the GI50 (U251 glioblastoma) was 1.89 µM, the TGI (U251 glioblastoma) was 10.4 µM and the GI50 (KM12 colon) was 0.92 µM. The TGI (KM12 colon) was 6.88 µM, the GI50 (NCI-H23 lung) was 1.73 µM and the TGI (NCI-H23 lung) was 6.24 µM. It also gave a GI50 (SF-539 CNS) of 0.195 µM, a TGI (SF-539 CNS) of 1.63 µM and a GI50 (CCRF-CEM leukemia) of 0.41 µM. It also gave a TGI (CCRF-CEM leukemia) of 1.75 µM, a GI50 (SW-620 colon) of 1.86 µM and a TGI (SW-620 colon) of 7.73 µM. For the same molecule, the GI50 (HS 578T breast) was 0.75 µM, the TGI (HS 578T breast) was 2.35 µM and the GI50 (M14 melanoma) was 1.21 µM. For the same molecule, the TGI (M14 melanoma) was 2.48 µM, the GI50 ([…]-0 renal) was 0.482 µM and the TGI (786-0 renal) was 1.94 µM. It also gave a GI50 (NCI-H226 lung) of 2.35 µM, a TGI (NCI-H226 lung) of 8.74 µM and a GI50 (OVCAR-5 ovarian) of 2.79 µM. The TGI (OVCAR-5 ovarian) was 11.2 µM, the GI50 (MDA-MB-231 breast) was 2.72 µM and the TGI (MDA-MB-231 breast) was 13.7 µM. For the same molecule, the GI50 (SF-295 CNS) was 1.02 µM, the TGI (SF-295 CNS) was 3.22 µM and the GI50 (HCT-15 colon) was 1.19 µM. For the same molecule, the TGI (HCT-15 colon) was 8.43 µM, the GI50 (K-562 leukemia) was 1.64 µM and the TGI (K-562 leukemia) was 3.2 µM. For the same molecule, the GI50 (SK-MEL-2 melanoma) was 1.31 µM, the TGI (SK-MEL-2 melanoma) was 2.66 µM and the GI50 (MDA-MB-435 melanoma) was 1.32 µM. It also gave a TGI (MDA-MB-435 melanoma) of 5.51 µM, a GI50 (A549 NSCLC) of 1.51 µM and a TGI (A549 NSCLC) of 6.39 µM. For the same molecule, the GI50 (SF-268 CNS) was 1.48 µM, the TGI (SF-268 CNS) was 4.2 µM and the GI50 (HOP-92 NSCLC) was 1.32 µM. It also gave a TGI (HOP-92 NSCLC) of 3.35 µM, a GI50 (NCI-H522 lung) of 1.19 µM and a TGI (NCI-H522 lung) of 5.7 µM. It also gave a GI50 (PC-3 prostate) of 0.345 µM, a TGI (PC-3 prostate) of 3.85 µM and a GI50 (NCI-H460 NSCLC) of 0.366 µM. For the same molecule, the TGI (NCI-H460 NSCLC) was 2.4 µM, the GI50 (OVCAR-4 ovarian) was 3.02 µM and the TGI (OVCAR-4 ovarian) was 12 µM. For the same molecule, the GI50 (RXF 393 renal) was 0.231 µM, the TGI (RXF 393 renal) was 1.34 µM and the GI50 (MOLT-4 leukemia) was 0.0882 µM. For the same molecule, the TGI (MOLT-4 leukemia) was 0.718 µM, the GI50 (NCI-H322M lung) was 3.1 µM and the TGI (NCI-H322M lung) was 14.4 µM. It also gave a GI50 (NCI/ADR-RES ovarian) of 2.79 µM, a TGI (NCI/ADR-RES ovarian) of 10.3 µM and a GI50 (UACC-257 melanoma) of 1.02 µM. The TGI (UACC-257 melanoma) was 2.19 µM.
